Measured values: US20080207750A1, “Use of N-Chlorotaurine for Treatment of Oozing Tissue Deficiencies” (Pathogenics LLC, priority 2002, published 2008)

Columns and labels:
oozing ear channel = assay: Treatment of the oozing ear channel after tympanoplasty with aqueous 1% NCT solution (case reports); assay type: in vivo, human; settings: for time until oozing ceased / complete epithelization achieved earlier than by the conventional treatment with fuchsine / incorporation of the temporal fascia: tympanoplasty
Text: Rinsing the ear channel with NCT solution provokes in general a drying of the ear channel and the tympanoplastic within 1-2 days.
A human patient with a traumatic perforation of the tympanic membrane was provided with a tympanoplasty. After removing incrustations and granulation tissue, the destroyed tympanic membrane was excised and substituted by a fascia temporalis. After taking away the tamponade, the microbiological culture of a swab from the reconstructed tympanic membrane and the ear channel was sterile. Subsequently, the oozing ear channel was treated one time daily for two days by instillation of 2 mL of aqueous 1% NCT solution. […] The complete epithelization was achieved 3 days earlier than by the conventional treatment with fuchsine.
A human patient suffering from a perforation of the tympanic membrane caused by a chronic inflammation of the middle ear received tympanoplasty. After removing incrustations and granulation tissue, the destroyed tympanic membrane was excised and substituted by a fascia temporalis. After taking away the tamponade, the microbiological culture of a swab from the reconstructed tympanic membrane and the ear channel was sterile. Subsequently, the oozing and swollen ear channel was treated one time daily for five days by instillation of 2 mL of aqueous 1% NCT solution. […] The complete epithelization was achieved 3 days earlier than by the conventional treatment with fuchsine.

[1] = pH of aqueous solutions of NCT; assay type: physicochemical
Protocol: (§1) Reagents: Pure NCT as a crystalline sodium salt was dissolved in sterile distilled water to a concentration of 1% (55 mM). Purity was verified by iodometric titration and spectrophotometry. […] Solutions were stored at 2-4° C., where they are stable for 1 year, and allowed to reach room temperature before application to the patients.

[2] = Storage stability of aqueous NCT solutions; assay type: physicochemical; settings: 1% (55 mM) aqueous solution stored at 2-4° C.
Protocol: as §1

outer ear canal = assay: Pilot study (open phase IIa): irrigation of the external auditory canal with 1% NCT after tympanoplasty; assay type: in vivo, human; settings: 12 patients
Protocol: Procedures: Local irrigations of the external auditory canal with 3 ml of 1% N-chlorotaurine solution were performed once daily until the canal was dry.
as §1
Study Design: An open phase IIa study was performed in 12 patients after tympanoplasty. They received a single-shot antibiotic therapy with 2 g Spizef (cefotiam) i.v. perioperatively.
All subjects were treated with 1% N-chlorotaurine.
Subjects: The study population included 6 female and 6 male human patients, ranging in age from 32 to 66 years (median 48,1 years). Inclusion criteria was status post tympanoplasty. Exclusion criteria included topical treatment with other agents, systemic application of antibiotics or corticoids, pregnancy, and simultaneous participation in another study. No patients had to be withdrawn after inclusion.
Treatment and Time Course: After removing the ear-tamponade, which remained in place for 2 to 3 weeks postoperatively, 3 ml of the 1% aqueous NCT solution was applied once daily to the outer ear canal. The endpoint of the treatment was defined as a completely dry canal, corresponding to a clinical score of zero (see below for scoring).
Evaluation and Statistical Analysis: The primary criterion for the judgement of the status of the external meatus was a six-scale clinical score (0-5) based on visual observation via ear microscopy (zero=dry outer ear canal; 5=moist outer ear canal with inflammation).
The second criterion was subjective pain, ascertained by a visual analogue scale.
Clinical examination of the outer ear canal was performed daily for detection of moisture, signs of infection, and judgement of epithelisation of the neo-tympanon.
A completely dry external meatus (score zero) was considered as the endpoint criterion for the termination of the study.
Before and at the end of the study an audiogram was performed in all patients.
Moisture and inflammation of the external auditory canal during and after irrigation with NCT were compared to those before treatment using the Wilcoxon test. P-values<0.05 were considered to indicate statistical significance. Due to the limited number of patients no corrections for multiple comparisons were applied.

[3] = test system: open leg ulcer with fibrous coating; assay: Treatment of open leg ulcer with fibrous coating with wound dressing soaked with aqueous 1% NCT solution; assay type: in vivo, human; settings: Example 3: person, burn accident; dressing soaked with aqueous 1% NCT two times daily
Protocol: A human patient suffering from an open leg ulcer with fibrous coating caused by a burn accident was treated two times daily with wound dressing soaked with aqueous 1% NCT solution. […] Microbiological cultures of swabs before and after therapy were sterile.

[4] = Example 1: person, 2 mL aqueous 1% NCT one time daily for two days
[5] = Example 2: person, 2 mL aqueous 1% NCT one time daily for five days
[6] = 3 ml 1% NCT once daily, score zero = dry outer ear canal

Structure (SMILES): O=S(=O)(O)CCNCl [NCT, N-chlorotaurine]
- time until oozing ceased (oozing ear channel; Example 1: person, 2 mL aqueous 1% NCT instilled one time daily for two days): one
- complete epithelization achieved earlier than by the conventional treatment with fuchsine (oozing ear channel; [4]): 3 days
- incorporation of the temporal fascia (oozing ear channel; [4]): proceeded without problems
- time until oozing ceased (oozing ear channel; Example 2: person, 2 mL aqueous 1% NCT instilled one time daily for five days): three
- complete epithelization achieved earlier than by the conventional treatment with fuchsine (oozing ear channel; [5]): 3 days
- incorporation of the temporal fascia (oozing ear channel; [5]): proceeded without problems
- drying of the ear channel and the tympanoplastic (oozing ear channel; rinsing the ear channel with NCT solution, in general): 1 to 2 days
- pH [1]: 8
- stability of solutions on storage [2]: 1 year
- dizziness or nystagmus (outer ear canal; 3 ml 1% NCT once daily): No dizziness or nystagmus occurred
- drying of the outer ear canal (outer ear canal; 3 ml 1% NCT once daily): Rapid drying of the outer ear canal was detected in all patients
- epithelisation of the new tympanon on ear microscopy (outer ear canal; 3 ml 1% NCT once daily): proceeded regularly without granulation
- infection in the postoperative course (outer ear canal; 3 ml 1% NCT once daily): No infection occurred
- time needed for complete epithelisation (mean±SD) (outer ear canal; 3 ml 1% NCT once daily): 22.6 ± 3.5 days
- time needed for complete epithelisation (range) (outer ear canal; 3 ml 1% NCT once daily): 18 to 31 days
- tolerability of treatment (outer ear canal; 3 ml 1% NCT once daily): tolerated very well by all patients
- average clinical score (0-5) of the outer ear canal (outer ear canal; 3 ml 1% NCT once daily, days 2-5 vs. baseline day 1, Wilcoxon test): decreased daily
- necessary time for achieving a score of zero (mean±SD) (outer ear canal; [6]): 2.75 ± 0.87 days
- necessary time for achieving a score of zero (range) (outer ear canal; [6]): 2 to 5 days
- subjective pain (outer ear canal; 3 ml 1% NCT once daily, visual analogue scale): without occurrence of any pain
- damage to the inner ear (outer ear canal; audiogram before and after treatment): no signs of damage to the inner ear
- allergic reactions (outer ear canal; whole period of treatment): no signs of allergic reactions
- healing process [3]: went on without problems
- treatment time until the fibrous coating disappeared [3]: three
